Data set [1] relates to Actinomyces viscosus (AV). In words: MIC of agents alone, in pairs and in three-agent combination (Example 2). It is filed as cell-based, Actinomyces viscosus ATCC 19246. The settings on record: AV, agent used alone. An excerpt:
(§1) In addition, the example describes how the MIC of antimicrobial agents in the combinations are reduced compared to the MIC of those antimicrobial agents alone and the MIC of those agents in various pairings. Numerous combinations of the antimicrobial agents described herein were combined to form combinations comprising three antimicrobial agents or triplets. Each of the formed triplets included either cedarwood oil or berberine hydrochloride.
(§2) The protocol used was a variation of the procedure described above in Example 1. The assay was carried out in the two-dimensional array of a 96-well plate. In order to evaluate three agents, two of the agents were paired against the third agent. For example, varying concentrations of antimicrobial agent A plus antimicrobial agent B versus varying concentrations of antimicrobial agent C were evaluated on one 96-well plate. The procedure was repeated with the other two possible pairings, i.e., A+C with B, and B+C with A. Accordingly, each triplet required three assays in order to assess each of the three possible pairings.
(§3) The bacterial innoculum was prepared as described in Example 1.
(§4) A sterile polystyrene 96-well plate was used to dilute the antimicrobial agents A, B and C. Using aseptic technique, 100 microliters of distilled water was placed in each test well. The dilution scheme was separated into two parts. First, the dilution of the combined agents A and B and then second, the dilution of agent C. A dilution of agents A and B was accomplished by placing 50 microliters of stock solution for agent A in the first well of each column. Next, 50 microliters of stock solution for agent B was added to each of the first wells of each column. Accordingly, the first well of each column included 50 microliters of stock solution for agent A and 50 microliters of stock solution for agent B. 100 microliters from the first row in each column was then transferred to the next well in the column and so on down the column. Each transfer was a one-half dilution of the preceding concentration.
(§5) The dilution of antimicrobial agent C was accomplished by adding 100 microliters of agent C stock solution to the first well of each row. 100 microliters from the first well in each row was then transferred to the next well and so on across the row of test wells. Each transfer was a one-half dilution of the preceding concentration. FIG. 1 is a schematic illustration of the concentrations of antimicrobial agents A, B and C derived from the dilution scheme described above. […] The concentration of agent C decreases across a row from left to right. […]
(§6) The 96-well plate was then incubated under conditions that varied by microorganism. […] The plate was then read for microbial growth with a spectrophotometer by optical density. […]

Data set [2] concerns Fusobacterium nucleatum (FN). The data set is described as above. The class given is cell-based, Fusobacterium nucleatum ATCC 10933. Conditions: FN, agent used alone.
Description: as §1, §2, §3, §4, §5, §6

Data set [3] has as its system Porphyromonas gingivalis (PG). Described as above. The class given is cell-based, Porphyromonas gingivalis ATCC 33277. The settings on record: PG, agent used alone.
Description: as §1, §2, §3, §4, §5, §6

Data set [4] concerns Streptococcus mutans (SM). Described as above. It is filed as cell-based, Streptococcus mutans ATCC 25175. Conditions: SM, agent used alone.
Description: as §1, §2, §3, §4, §5, §6

For data set [5], the system named is Streptococcus sanguis (SS). Described as above. The class given is cell-based, Streptococcus sanguis ATCC 49295. Conditions: SS; agent used alone.
Description: as §1, §2, §3
A sterile polystyrene 96-well plate was used to dilute the antimicrobial agents A, B and C. Using aseptic technique, 100 microliters of distilled water was placed in each test well. The dilution scheme was separated into two parts. First, the dilution of the combined agents A and B and then second, the dilution of agent C. A dilution of agents A and B was accomplished by placing 50 microliters of stock solution for agent A in the first well of each column. Next, 50 microliters of stock solution for agent B was added to each of the first wells of each column. […]
as §6

Data set [6] relates to Campylobacter rectus (CR). The description is as above. Conditions: CR, agent used alone, read-out: MIC, individual agent alone. It is filed as cell-based.
Description: as §1, §2, §3
A sterile polystyrene 96-well plate was used to dilute the antimicrobial agents A, B and C. […]
as §6

Data set [7] is classed as in vivo, human volunteers. The settings on record: in vivo. How it is done: The saliva samples were refrigerated until analysis.
To either 2.7 grams unchewed gum sample or the remaining bolus of chewed gum, was added 3.0 millileters of internal standard (Hesperetin) in methanol, 6.0 milliliters hexane and 3.0 milliliters distilled water. Samples were homogenized using a Polytron Homogenizer model PT10/35 from Brinkmann Instruments, fitted with a PTA10TS generator for at least 30 seconds on ice, or until no lumps of non-dispersed gum were visible in the sample. Samples were then centrifuged in a Dynac Tabletop Centrifuge at top speed for ten minutes. The lower, amber, aqueous/methanol layer were then filtered through 25 millimeter, 0.45 micrometer nylon Acrodisc syringe filters from Gelman into 4 milliliter autosampler vials and tightly capped with polytetrafluorothylene lined septum in open-top screw caps. These samples were then analyzed using high pressure liquid chromatography for glabridin and/or glycyrrhizic and 18β-glycyrrhetinic acid, and were quantitated against a 4-point linear curve prepared by spiking approximately 2.7 grams unchewed samples of Wrigley Extra Sugarfree Peppermint gum with known levels of purified glabridin, glycyrrhizic acid monoammonium salt and 18β-glycyrrhetinicacid.
For the analysis of the gum bolus, both chewed and unchewed, a Polytron Homogenizer, described above was used. The gum sample was placed in a heavy wall glass tube. Internal standard ([…]) ethyl acetate ([…]) and water ([…]) were added. The sample was homogenized for approximately 30 seconds, or until no particles could be seen. The tubes were then centrifuged for 10 minutes on a clinical centrifuge at maximum speed. The supernatant was injected directly onto the gas chromatograph. The oven program was modified to allow resolution of ROF1 components from those of the peppermint flavoring. The gas chromatograph was calibrated using a three point standard curve to quantify the following components: menthol (flavor); geraniol (oil geraniol); cedrene, thujopsene (RC1); pinene, cineol, camphor, bornyl acetate (ROF1). The initial temperature was decreased from 140° C. to 100° C. The temperature gradient was changed from 10° C./minute to 4° C./minute. The split ratio was 50:1, and injection volume was 1 μL as per the method. A cleanup gradient was run every fifth sample as described previously.
A recovery study was performed in triplicate using blank Wrigley's Peppermint Gum (chewed and unchewed) spiked with stand and solution. Recovery was calculated relative to a direct standard consisting of spike solution without sample matrix.

The next data set deals with Porphyromonas gingivalis. In words: MIC of each agent used in Example 5. It is filed as cell-based. The settings on record: starting dilution 0.1 percent in methanol, MIC defined in micrograms per milliliter, read-out: MIC relative to Porphyromonas gingivalis used in Example 5. How it is done: The MIC Range was determined against a standard panel of five organisms that included Actinomyces viscosus, Fusobacterium nucleatum, Porphyromonas gingivalis, Streptococcus mutans, and Stretococcus sanguis. The starting dilution was 0.1 percent in methanol. The MIC used in this Example 5 was the MIC for each agent relative to Porphyromonas gingivalis.

For data set [8] the following is noted: for Rate of release from gum: in words.
Description: (§7) Ten volunteers chewed 2.7 grams samples of each gum formulation and provided saliva samples at intervals and the gum bolus at the end of the 25 minute chewing period. High pressure liquid chromatography and gas chromatography were used to analyze the gum bolus and saliva non-volatile and volatile components, respectively.
(§8) Saliva samples were collected from each of the individuals prior to chewing 2.7 grams of gum, and at 1.0, 2.5, 5.0, 10.0, and 25.0 minutes while chewing the gum. The saliva samples were refrigerated until analysis. The gum bolus that remained after 25 minutes was saved and extracted immediately or stored refrigerated until extraction for analysis.
(§9) Samples were Vortex-mixed in Multi-tube vortex mixer for one minute and then centrifuged at top speed in clinical centrifuge for two minutes. Supernatants were carefully transferred to 1 milliliter glass shell vials and capped. Analysis was carried out either by isocratic elution for glabridin-only samples, or gradient elution for the samples containing the glycyrrhizic and 18β-glycyrrhetinic acids using high pressure liquid chromatography. Glabridin concentrations were converted to GLY concentrations by taking the weight percent glabridin in GLY to be 2.74 percent.
(§10) The calibration curve was prepared using spiked blank saliva.
(§11) For saliva, the essential oils of menthol, cedarwood oil, geraniol and Rosmarinus officianalis were determined by capillary gas chromatography. The split ratio was 25:1. The injection volume was 2 μL. Four hundred μL of saliva was extracted from the 1 milliliter of ethyl acetate containing an internal standard (hexadecane) in 1.5 milliliter Eppendorf tubes. After centrifugation, the organic layer was injected directly into the Hewlett-Packard 6890 gas chromatograph. […] For this reason, only the samples from 0 to 10 minutes were analyzed. A cleanup gradient was run from 190 to 300° C. every fifth sample to remove less volatile interferences from the column.
A short description of the next data set: clinical. The settings on record: human, in vivo.

SMILES strings stand for the structures. Where “and” joins values, the source holds several entries; their conditions need not be identical. Equal values may be shown once. Read-outs that look alike come from different tables or passages of the source.

Description for clinical: as §7, §8, §9, §10, §11

`CC(C)=CCC/C(C)=C/CO` [GRA1, trans-3,7-dimethyl-2,6-octadien-1-ol]: the “MIC, individual agent alone” value is 62.5 µg/mL and 125 µg/mL in [1]; 62.5 µg/mL and 125 µg/mL in data set [2]; 62.5 µg/mL in [3]; 125 µg/mL in [4]; 125 µg/mL and 62.5 µg/mL and 250 µg/mL in data set [5]. Besides, the MIC in data set [1] (Actinomyces viscosus, read-out: MIC, individual agent alone) amounted to 125 µg/mL; in data set [2] (Fusobacterium nucleatum, read-out: MIC, individual agent alone), 62.5 µg/mL; in data set [3] (Porphyromonas gingivalis, read-out: MIC, individual agent alone), 62.5 µg/mL; in data set [4] (Streptococcus mutans, read-out: MIC, individual agent alone), 125 µg/mL; in [6], 250 µg/mL; in the data set with Porphyromonas gingivalis, 7.8 µg/mL. Besides, in [7], the “Release from Chewed Gum Bolus after 25 min” value was 34%. For the same molecule, the “Above MIC in Saliva (Y/N)” value in data set [8] (concentration in saliva at any time above MIC relative to Porphyromonas gingivalis) is reported as “No”. Besides, in data set [8] (human, in vivo), the “Time maintaining a presence in the oral cavity” value is listed as “about 25 minutes”. Moreover, the “Rate of release from gum” value is “released more slowly and over a longer period of time” in [8] (listed as GRA); “released from a gum base less quickly and over a longer period of time” in data set [8] (listed as geraniol). Further, the concentration at 1 min in “clinical” came out at 6000 ng/mL. In the data set “clinical”, this molecule displayed a concentration at 2.5 min of 6000 ng/mL. Also, the concentration at 5 min in the data set “clinical” amounted to 7000 ng/mL. In the data set “clinical”, the concentration at 10 min was found to be 5000 ng/mL.

As a reminder, the MIC is the smallest concentration in the dilution series that meets the test's criterion for growth inhibition.

The values are drawn from US6248309A, “Gums containing antimicrobial agents” (priority 1999, dated 2001).
